Assays:
[1] = biological target: Trypanothione reductase (Trypanosoma cruzi, UniProt P28593); experiment: Inhibition of trypanothione reductase from Trypanosoma cruzi, in the presence 57 uM of trypanothione T(SH)2
[2] = Catalytic rate constant was determined; type: ADME
[3] = (§1) Michaelis constant was determined.; type: ADME
[4] = as §1

Trypanothione reductase, sequence (P28593 whole entry): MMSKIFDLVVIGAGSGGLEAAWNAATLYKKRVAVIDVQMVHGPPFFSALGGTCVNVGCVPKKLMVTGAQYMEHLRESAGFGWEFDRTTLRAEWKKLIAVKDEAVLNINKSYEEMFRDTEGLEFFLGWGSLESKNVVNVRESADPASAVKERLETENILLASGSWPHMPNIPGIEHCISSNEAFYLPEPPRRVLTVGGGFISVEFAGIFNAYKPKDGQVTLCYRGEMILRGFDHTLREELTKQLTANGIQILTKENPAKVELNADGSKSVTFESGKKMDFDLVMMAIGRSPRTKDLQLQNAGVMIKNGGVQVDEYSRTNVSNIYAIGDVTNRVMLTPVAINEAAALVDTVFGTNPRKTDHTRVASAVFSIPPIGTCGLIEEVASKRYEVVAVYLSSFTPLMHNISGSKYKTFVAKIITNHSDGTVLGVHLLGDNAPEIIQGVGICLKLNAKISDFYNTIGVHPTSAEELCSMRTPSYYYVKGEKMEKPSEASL

Row | SMILES | IC50 [1] | other results
1 | CCN(CC)C(=O)CCCC(=O)Nc1cccc(Sc2ccc(Br)cc2NC(=O)CCN2CCN(C)CC2)c1 | > 60 µM | 
2 | CN1CCN(CCC(=O)Nc2cc(Br)ccc2Sc2cccc(NC(=O)CCCCCC(=O)Nc3cccc(Sc4ccccc4[N+](=O)[O-])c3)c2)CC1 | > 60 µM | 
3 | CN1CCN(CCC(=O)Nc2cc(Br)ccc2Sc2cccc(NC(=O)CCCC(=O)NCC3CCCO3)c2)CC1 (centres undefined) | > 60 µM | 
4 | CN1CCN(CCC(=O)Nc2cc(Br)ccc2Sc2cccc(NC(=O)CCCCCC(=O)Nc3ccccc3)c2)CC1 | 14 µM | 
5 | CC1=CC(=O)c2ccccc2C1=O [MENADIONE] |  | Km [4]: 882 µM; k cat/Km [2]: 50000 M⁻¹ s⁻¹
6 | CN1CCN(CCC(=O)Nc2cc(Br)ccc2Sc2cccc(NC(=O)CCCC(=O)NCc3ccccn3)c2)CC1 | > 60 µM | 
7 | CN1CCN(CCC(=O)Nc2cc(Br)ccc2Sc2cccc(NC(=O)CCCC(=O)NCCc3ccccc3)c2)CC1 | 20 µM | 
8 | CCCCCCCNC(=O)CCCC(=O)Nc1cccc(Sc2ccc(Br)cc2NC(=O)CCN2CCN(C)CC2)c1 | 23 µM | 
9 | CN1CCN(CCC(=O)Nc2cc(Br)ccc2Sc2cccc(NC(=O)CCCC(=O)NCc3ccc4c(c3)OCO4)c2)CC1 | 33 µM | 
10 | CN1CCN(CCC(=O)Nc2cc(Br)ccc2Sc2cccc(NC(=O)CCCC(=O)NCC3CCCCC3)c2)CC1 | 47 µM | 

Continued, in another order:

Row | IC50 [1] | SMILES | other results
11 | > 60 µM | CCCCCCCCCCCCCCCCNC(=O)CCCC(=O)Nc1cccc(Sc2ccc(Br)cc2NC(=O)CCN2CCN(C)CC2)c1 | 
12 | 16 µM | CN1CCN(CCC(=O)Nc2cc(Br)ccc2Sc2cccc(NC(=O)CCCCCC(=O)Nc3cccc(Sc4ccccc4N)c3)c2)CC1 | 
13 | 35 µM | CN1CCN(CCC(=O)Nc2cc(Br)ccc2Sc2cccc(NC(=O)CCCC(=O)NCc3ccccc3)c2)CC1 | 
14 | 41 µM | CN1CCN(CCC(=O)Nc2cc(Br)ccc2Sc2cccc(NC(=O)CCCCCC(=O)OCC3=C(Br)C(=O)c4ccccc4C3=O)c2)CC1 | k cat/Km [2]: 8400 M⁻¹ s⁻¹; Km [3]: 160 µM
15 | 25 µM | CN1CCN(CCC(=O)Nc2cc(Br)ccc2Sc2cccc(NC(=O)CCCC(=O)NCc3ccc4ccccc4c3)c2)CC1 | 
16 | 3.3 µM | CN(C)Cc1ccc(Nc2ccc(NC(=O)CCCCCC(=O)Nc3cccc(Sc4ccc(Br)cc4NC(=O)CCN4CCN(C)CC4)c3)c3c2C(=O)c2ccccc2C3=O)cc1 | 
17 | > 60 µM | CN1CCN(CCC(=O)Nc2cc(Br)ccc2Sc2cccc(NC(=O)CCCC(=O)NCC34C[C@H]5C[C@@H](C3)C[C@@H](C4)C5)c2)CC1 | 
18 | 0.55 µM | CN1CCN(CCC(=O)Nc2cc(Br)ccc2Sc2cccc(NC(=O)CCCC(=O)Nc3cccc(Sc4ccc(Br)cc4NC(=O)CCN4CCN(C)CC4)c3)c2)CC1 | 
19 | 1.8 µM | CN1CCN(CCC(=O)Nc2ccccc2Sc2cccc(NC(=O)CCCCCC(=O)Nc3cccc(Sc4ccccc4N)c3)c2)CC1 | 
20 | 28 µM | CN1CCN(CCC(=O)Nc2cc(Br)ccc2Sc2cccc(NC(=O)CCCC(=O)NC(c3ccccc3)c3ccccc3)c2)CC1 | 
21 | > 60 µM | CN1CCN(CCC(=O)Nc2cc(Br)ccc2Sc2cccc(NC(=O)CCCCCC(=O)Nc3ccc(N)c4c3C(=O)c3ccccc3C4=O)c2)CC1 | 

Reference: ChEMBL document CHEMBL1131361, “Structure-activity relationships in 2-aminodiphenylsulfides against trypanothione reductase from Trypanosoma cruzi” (Bioorg Med Chem Lett, 1998)
